Measured values taken from ChEMBL document CHEMBL4402604, “Discovery and Structure-Activity Relationship Study of (Z)-5-Methylenethiazolidin-4-one Derivatives as Potent and Selective Pan-phosphatidylinositol 5-Phosphate 4-Kinase Inhibitors” (J Med Chem, 2020).
The source made the active and inactive calls. The rule behind the calls is not given here.

Columns and labels:
[1] = Lipophilicity, logD of the compound; assay type: physicochemical; conditions: octanol/water
[2] = Permeability of the compound by PAMPA method; assay type: ADME
[3] = Stability in rat liver microsomes at 1 uM in presence of NADPH regeneration system incubated for 15 mins by LC-MS analysis; assay type: ADME, Microsome
[4] = molecular target: Activin receptor type-2A (Homo sapiens) (UniProt P27037); assay: Inhibition of human ACVR2A expressed in baculovirus expression system
Sequence of Activin receptor type-2A (Homo sapiens) (P27037 whole entry): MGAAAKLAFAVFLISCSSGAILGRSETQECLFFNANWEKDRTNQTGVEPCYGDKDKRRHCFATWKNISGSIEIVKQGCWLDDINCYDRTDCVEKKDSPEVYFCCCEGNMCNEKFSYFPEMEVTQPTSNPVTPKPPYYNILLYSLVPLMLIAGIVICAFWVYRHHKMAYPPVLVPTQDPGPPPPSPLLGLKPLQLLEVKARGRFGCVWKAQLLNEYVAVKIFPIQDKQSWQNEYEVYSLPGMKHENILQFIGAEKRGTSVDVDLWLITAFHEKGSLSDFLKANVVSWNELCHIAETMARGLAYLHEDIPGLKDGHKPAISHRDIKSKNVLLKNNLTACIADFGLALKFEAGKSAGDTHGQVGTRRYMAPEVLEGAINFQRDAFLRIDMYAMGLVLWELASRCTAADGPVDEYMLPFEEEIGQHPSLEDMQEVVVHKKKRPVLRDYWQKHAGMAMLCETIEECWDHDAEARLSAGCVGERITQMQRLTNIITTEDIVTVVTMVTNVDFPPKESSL

| Compound | logD [1] | other results |
| --- | --- | --- |
| CC(=O)Nc1cccc(Oc2cncc(-c3ccc(NS(C)(=O)=O)cc3)c2)c1 | 1.5 |  |
| CS(=O)(=O)Nc1ccc(-c2cncc(-c3ccc4[nH]ccc4c3)c2)cc1 | 2.5 |  |
| CNC(=O)Nc1ccc(-c2cncc(-c3ccc(NS(C)(=O)=O)cc3)c2)cc1 | 1.6 |  |
| CS(=O)(=O)Nc1ccc(-c2cc(/C=C3\SC(=N)NC3=O)cnc2N)cc1 | 0.41 | permeability [2]: Impermeable; Stability [3]: Stable |
| CS(=O)(=O)Nc1ccc(-c2cncc(-c3cccc4c3CC(=O)N4)c2)cc1 | 1.5 |  |
| CN(C)c1ccc(-c2cncc(/C=C3\SC(=N)NC3=O)c2)cc1 | 2.4 |  |
| CS(=O)(=O)Nc1ccc(-c2cncc(/C=C3\SC(=N)NC3=O)c2)cc1 | 0.66 | permeability [2]: Impermeable; Stability [3]: Stable |
| CNS(=O)(=O)c1ccc(-c2cncc(/C=C3\SC(=N)NC3=O)c2)cc1 | 1.1 |  |
| CS(=O)(=O)Nc1ccc(-c2cnc(N)c(/C=C3\SC(=N)NC3=O)c2)cc1 | 0.41 |  |
| CS(=O)(=O)Nc1ccc(-c2cncc(-c3cccc4[nH]ccc34)c2)cc1 | 2.5 | permeability [2]: Permeable; Stability [3]: Stable; inhibition [4]: Active |
| CS(=O)(=O)Nc1ccc(-c2cncc(/C=C3\OC(=O)NC3=O)c2)cc1 | -1 |  |
| CS(=O)(=O)Nc1ccc(-c2cncc(-c3ccc4cc[nH]c4c3)c2)cc1 | 2.5 |  |
| CC(=O)Nc1cccc(-c2cncc(/C=C3\SC(=N)NC3=O)c2)c1 | 1.5 |  |
| CS(=O)(=O)Nc1ccc(-c2cncc(/C=C3\SC(=O)NC3=O)c2)cc1 | -0.05 | Stability [3]: Stable |
| CC(=O)Nc1cccc(-c2cncc(-c3ccc(NS(C)(=O)=O)cc3)c2)c1 | 1.7 |  |
| CC(=O)Nc1cccc(Nc2cncc(-c3ccc(NS(C)(=O)=O)cc3)c2)c1 | 1.5 |  |
| CC(=O)Nc1ccc(-c2cncc(/C=C3\SC(=N)NC3=O)c2)cc1 | 1.5 |  |
| COc1ccc(-c2cncc(/C=C3\SC(=N)NC3=O)c2)c2ccccc12 | 3.1 |  |
| N=C1NC(=O)/C(=C/c2cncc(-c3ccc(OC(F)(F)F)cc3)c2)S1 | 3.7 |  |
| CS(=O)(=O)Nc1ccc(-c2cncc(/C=C3\CC(=O)NC3=O)c2)cc1 | -0.14 |  |
| CS(=O)(=O)c1ccc(-c2cncc(/C=C3\SC(=N)NC3=O)c2)cc1 | 1.1 |  |
| CNC(=O)Nc1ccc(-c2cncc(/C=C3\SC(=N)NC3=O)c2)cc1 | 1.4 |  |
